Test results taken from PubChem BioAssay (NCI).
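Step 1: Grow cells in 96-well plates. Step 2: Expose to compound for 48 hours at 5 concentrations. Step 3: Interpolate endpoints linearly; if unreached, use highest concentration. TGI: concentration producing complete growth inhibition.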

Legend:
Test in all cases: NCI-60 cell line screen, 48 h
786-0 renal = tested on: 786-0 renal
A498 renal = tested on: A498 renal
A549 NSCLC = tested on: A549 NSCLC
ACHN renal = tested on: ACHN renal
BT-549 breast = tested on: BT-549 breast
CAKI-1 renal = tested on: CAKI-1 renal
CCRF-CEM leukemia = tested on: CCRF-CEM leukemia
COLO 205 colon = tested on: COLO 205 colon
DU-145 prostate = tested on: DU-145 prostate
EKVX NSCLC = tested on: EKVX NSCLC
HCC-2998 colon = tested on: HCC-2998 colon
HCT-116 colon = tested on: HCT-116 colon
HCT-15 colon = tested on: HCT-15 colon
HL-60(TB) leukemia = tested on: HL-60(TB) leukemia
HOP-62 NSCLC = tested on: HOP-62 NSCLC
HOP-92 NSCLC = tested on: HOP-92 NSCLC
HS 578T breast = tested on: HS 578T breast
HT29 colon = tested on: HT29 colon
IGROV1 ovarian = tested on: IGROV1 ovarian
K-562 leukemia = tested on: K-562 leukemia
KM12 colon = tested on: KM12 colon
LOX IMVI melanoma = tested on: LOX IMVI melanoma
M14 melanoma = tested on: M14 melanoma
MALME-3M melanoma = tested on: MALME-3M melanoma
MCF7 breast = tested on: MCF7 breast
MDA-MB-231 breast = tested on: MDA-MB-231 breast
MDA-MB-435 = tested on: MDA-MB-435
MDA-N = tested on: MDA-N
MOLT-4 leukemia = tested on: MOLT-4 leukemia
NCI-H226 lung = tested on: NCI-H226 lung
NCI-H23 lung = tested on: NCI-H23 lung
NCI-H460 lung = tested on: NCI-H460 lung
NCI-H522 lung = tested on: NCI-H522 lung
NCI/ADR-RES ovarian = tested on: NCI/ADR-RES ovarian
OVCAR-3 ovarian = tested on: OVCAR-3 ovarian
OVCAR-4 ovarian = tested on: OVCAR-4 ovarian
OVCAR-5 ovarian = tested on: OVCAR-5 ovarian
OVCAR-8 ovarian = tested on: OVCAR-8 ovarian
PC-3 prostate = tested on: PC-3 prostate
RPMI-8226 leukemia = tested on: RPMI-8226 leukemia
RXF 393 renal = tested on: RXF 393 renal
SF-268 CNS = tested on: SF-268 CNS
SF-295 CNS = tested on: SF-295 CNS
SF-539 CNS = tested on: SF-539 CNS
SK-MEL-2 melanoma = tested on: SK-MEL-2 melanoma
SK-MEL-28 melanoma = tested on: SK-MEL-28 melanoma
SK-MEL-5 melanoma = tested on: SK-MEL-5 melanoma
SK-OV-3 ovarian = tested on: SK-OV-3 ovarian
SN12C renal = tested on: SN12C renal
SNB-19 CNS = tested on: SNB-19 CNS
SNB-75 CNS = tested on: SNB-75 CNS
SR leukemia = tested on: SR leukemia
SW-620 colon = tested on: SW-620 colon
T-47D breast = tested on: T-47D breast
TK-10 renal = tested on: TK-10 renal
U251 CNS = tested on: U251 CNS
UACC-257 melanoma = tested on: UACC-257 melanoma
UACC-62 melanoma = tested on: UACC-62 melanoma
UO-31 renal = tested on: UO-31 renal

CN1CCOC1(C)c1ccccc1 (configuration not stated) showed a TGI (786-0 renal) greater than 100 µM, a TGI (A498 renal) greater than 100 µM and a TGI (A549 NSCLC) greater than 100 µM. The TGI (ACHN renal) was greater than 100 µM, the TGI (BT-549 breast) was greater than 100 µM and the TGI (CAKI-1 renal) was greater than 100 µM. The TGI (CCRF-CEM leukemia) was greater than 100 µM, the TGI (COLO 205 colon) was greater than 100 µM and the TGI (DU-145 prostate) was greater than 100 µM. For the same compound, the TGI (EKVX NSCLC) was greater than 100 µM, the TGI (HCC-2998 colon) was greater than 100 µM and the TGI (HCT-116 colon) was greater than 100 µM. The TGI (HCT-15 colon) was greater than 100 µM, the TGI (HL-60(TB) leukemia) was greater than 100 µM and the TGI (HOP-62 NSCLC) was greater than 100 µM. For the same compound, the TGI (HOP-92 NSCLC) was greater than 100 µM, the TGI (HS 578T breast) was greater than 100 µM and the TGI (HT29 colon) was greater than 100 µM. It also gave a TGI (IGROV1 ovarian) greater than 100 µM, a TGI (K-562 leukemia) greater than 100 µM and a TGI (KM12 colon) greater than 100 µM. The TGI (LOX IMVI melanoma) was greater than 100 µM, the TGI (M14 melanoma) was greater than 100 µM and the TGI (MALME-3M melanoma) was greater than 100 µM. The TGI (MCF7 breast) was greater than 100 µM, the TGI (MDA-MB-231 breast) was greater than 100 µM and the TGI (MDA-MB-435) was greater than 100 µM. For the same compound, the TGI (MDA-N) was greater than 100 µM, the TGI (MOLT-4 leukemia) was greater than 100 µM and the TGI (NCI-H226 lung) was greater than 100 µM. For the same compound, the TGI (NCI-H23 lung) was greater than 100 µM, the TGI (NCI-H460 lung) was greater than 100 µM and the TGI (NCI-H522 lung) was greater than 100 µM. For the same compound, the TGI (NCI/ADR-RES ovarian) was greater than 100 µM, the TGI (OVCAR-3 ovarian) was greater than 100 µM and the TGI (OVCAR-4 ovarian) was greater than 100 µM. It also gave a TGI (OVCAR-5 ovarian) greater than 100 µM, a TGI (OVCAR-8 ovarian) greater than 100 µM and a TGI (PC-3 prostate) greater than 100 µM. It also gave a TGI (RPMI-8226 leukemia) greater than 100 µM, a TGI (RXF 393 renal) greater than 100 µM and a TGI (SF-268 CNS) greater than 100 µM. The TGI (SF-295 CNS) was greater than 100 µM, the TGI (SF-539 CNS) was greater than 100 µM and the TGI (SK-MEL-2 melanoma) was greater than 100 µM. The TGI (SK-MEL-28 melanoma) was greater than 100 µM, the TGI (SK-MEL-5 melanoma) was greater than 100 µM and the TGI (SK-OV-3 ovarian) was greater than 100 µM. For the same compound, the TGI (SN12C renal) was greater than 100 µM, the TGI (SNB-19 CNS) was greater than 100 µM and the TGI (SNB-75 CNS) was greater than 100 µM. For the same compound, the TGI (SR leukemia) was greater than 100 µM, the TGI (SW-620 colon) was greater than 100 µM and the TGI (T-47D breast) was greater than 100 µM. For the same compound, the TGI (TK-10 renal) was greater than 100 µM, the TGI (U251 CNS) was greater than 100 µM and the TGI (UACC-257 melanoma) was greater than 100 µM. It also gave a TGI (UACC-62 melanoma) greater than 100 µM and a TGI (UO-31 renal) greater than 100 µM.

O=C1CC(=O)NC(=NN2C(=O)CSC2c2ccc(Cl)cc2)N1 (configuration not stated) showed a TGI (786-0 renal) greater than 100 µM, a TGI (A498 renal) greater than 100 µM and a TGI (A549 NSCLC) greater than 100 µM. For the same compound, the TGI (ACHN renal) was greater than 100 µM, the TGI (BT-549 breast) was greater than 100 µM and the TGI (CAKI-1 renal) was greater than 100 µM. It also gave a TGI (CCRF-CEM leukemia) of 83.3 µM, a TGI (COLO 205 colon) greater than 100 µM and a TGI (DU-145 prostate) greater than 100 µM. The TGI (HCC-2998 colon) was greater than 100 µM, the TGI (HCT-116 colon) was greater than 100 µM and the TGI (HCT-15 colon) was greater than 100 µM. It also gave a TGI (HOP-62 NSCLC) of 60.9 µM, a TGI (HOP-92 NSCLC) greater than 100 µM and a TGI (HS 578T breast) greater than 100 µM. For the same compound, the TGI (HT29 colon) was greater than 100 µM, the TGI (IGROV1 ovarian) was greater than 100 µM and the TGI (K-562 leukemia) was greater than 100 µM. The TGI (KM12 colon) was greater than 100 µM, the TGI (M14 melanoma) was greater than 100 µM and the TGI (MALME-3M melanoma) was greater than 100 µM. It also gave a TGI (MCF7 breast) greater than 100 µM, a TGI (MDA-MB-231 breast) greater than 100 µM and a TGI (MDA-MB-435) greater than 100 µM. The TGI (MDA-N) was greater than 100 µM, the TGI (MOLT-4 leukemia) was greater than 100 µM and the TGI (NCI-H226 lung) was greater than 100 µM. The TGI (NCI-H23 lung) was greater than 100 µM, the TGI (NCI-H460 lung) was greater than 100 µM and the TGI (NCI-H522 lung) was greater than 100 µM. For the same compound, the TGI (NCI/ADR-RES ovarian) was greater than 100 µM, the TGI (OVCAR-3 ovarian) was greater than 100 µM and the TGI (OVCAR-4 ovarian) was greater than 100 µM. For the same compound, the TGI (OVCAR-5 ovarian) was greater than 100 µM, the TGI (OVCAR-8 ovarian) was greater than 100 µM and the TGI (PC-3 prostate) was greater than 100 µM. It also gave a TGI (RPMI-8226 leukemia) greater than 100 µM, a TGI (RXF 393 renal) greater than 100 µM and a TGI (SF-268 CNS) greater than 100 µM. For the same compound, the TGI (SF-295 CNS) was greater than 100 µM, the TGI (SF-539 CNS) was greater than 100 µM and the TGI (SK-MEL-2 melanoma) was greater than 100 µM. The TGI (SK-MEL-28 melanoma) was greater than 100 µM, the TGI (SK-MEL-5 melanoma) was greater than 100 µM and the TGI (SK-OV-3 ovarian) was greater than 100 µM. For the same compound, the TGI (SN12C renal) was 47.6 µM, the TGI (SNB-75 CNS) was greater than 100 µM and the TGI (SR leukemia) was greater than 100 µM. The TGI (SW-620 colon) was greater than 100 µM, the TGI (T-47D breast) was greater than 100 µM and the TGI (TK-10 renal) was greater than 100 µM. The TGI (U251 CNS) was greater than 100 µM, the TGI (UACC-257 melanoma) was greater than 100 µM and the TGI (UACC-62 melanoma) was greater than 100 µM. The TGI (UO-31 renal) was greater than 100 µM.

Cc1[nH]c(N)nc(=S)c1CCCNc1ccccc1 showed a TGI (786-0 renal) greater than 100 µM, a TGI (A498 renal) of 92.4 µM and a TGI (A549 NSCLC) greater than 100 µM. The TGI (ACHN renal) was greater than 100 µM, the TGI (BT-549 breast) was greater than 100 µM and the TGI (CAKI-1 renal) was greater than 100 µM. For the same compound, the TGI (CCRF-CEM leukemia) was greater than 100 µM, the TGI (COLO 205 colon) was 66.9 µM and the TGI (DU-145 prostate) was greater than 100 µM. For the same compound, the TGI (EKVX NSCLC) was greater than 100 µM, the TGI (HCT-116 colon) was greater than 100 µM and the TGI (HCT-15 colon) was greater than 100 µM. It also gave a TGI (HL-60(TB) leukemia) greater than 100 µM, a TGI (HOP-62 NSCLC) greater than 100 µM and a TGI (HOP-92 NSCLC) greater than 100 µM. The TGI (HS 578T breast) was greater than 100 µM, the TGI (HT29 colon) was greater than 100 µM and the TGI (IGROV1 ovarian) was greater than 100 µM. The TGI (K-562 leukemia) was greater than 100 µM, the TGI (KM12 colon) was greater than 100 µM and the TGI (LOX IMVI melanoma) was greater than 100 µM. The TGI (M14 melanoma) was greater than 100 µM, the TGI (MALME-3M melanoma) was 99 µM and the TGI (MCF7 breast) was greater than 100 µM. It also gave a TGI (MDA-MB-231 breast) greater than 100 µM, a TGI (MDA-MB-435) greater than 100 µM and a TGI (MDA-N) greater than 100 µM. The TGI (MOLT-4 leukemia) was 21.1 µM, the TGI (NCI-H226 lung) was greater than 100 µM and the TGI (NCI-H23 lung) was greater than 100 µM. The TGI (NCI-H460 lung) was greater than 100 µM, the TGI (NCI-H522 lung) was greater than 100 µM and the TGI (NCI/ADR-RES ovarian) was greater than 100 µM. For the same compound, the TGI (OVCAR-3 ovarian) was greater than 100 µM, the TGI (OVCAR-4 ovarian) was greater than 100 µM and the TGI (OVCAR-5 ovarian) was greater than 100 µM. For the same compound, the TGI (OVCAR-8 ovarian) was greater than 100 µM, the TGI (PC-3 prostate) was greater than 100 µM and the TGI (RPMI-8226 leukemia) was greater than 100 µM. The TGI (RXF 393 renal) was greater than 100 µM, the TGI (SF-268 CNS) was greater than 100 µM and the TGI (SF-295 CNS) was greater than 100 µM. For the same compound, the TGI (SF-539 CNS) was greater than 100 µM, the TGI (SK-MEL-2 melanoma) was greater than 100 µM and the TGI (SK-MEL-28 melanoma) was greater than 100 µM. For the same compound, the TGI (SK-MEL-5 melanoma) was 80 µM, the TGI (SK-OV-3 ovarian) was greater than 100 µM and the TGI (SN12C renal) was greater than 100 µM. For the same compound, the TGI (SNB-19 CNS) was greater than 100 µM, the TGI (SNB-75 CNS) was greater than 100 µM and the TGI (SR leukemia) was 96.9 µM. It also gave a TGI (SW-620 colon) greater than 100 µM, a TGI (T-47D breast) greater than 100 µM and a TGI (TK-10 renal) greater than 100 µM. The TGI (U251 CNS) was greater than 100 µM, the TGI (UACC-257 melanoma) was greater than 100 µM and the TGI (UACC-62 melanoma) was greater than 100 µM. It also gave a TGI (UO-31 renal) greater than 100 µM.
